Results reported in patent publication US8759558B2, “Sulphur containing lipids for use as food supplement or as medicament” (Pronova Biopharma Norge AS, priority 2008, dated 2014).

What was measured:
PPARα = molecular target: T1, PPARα (Homo sapiens, UniProt Q07869); assay: PPARα activation in-vitro, mammalian-one-hybrid (M1H) luciferase reporter assay, concentration response; assay type: cell-based; settings: GAL4-DBD-PPARα-LBD, transiently transfected HEK293 cells; for PPARα Efficacy: positive control GW7647
T1 construct: expressed in transfected cells; host or cells: HEK293 cells, transiently transfected
T1 sequence (Q07869 239-466 limits assumed): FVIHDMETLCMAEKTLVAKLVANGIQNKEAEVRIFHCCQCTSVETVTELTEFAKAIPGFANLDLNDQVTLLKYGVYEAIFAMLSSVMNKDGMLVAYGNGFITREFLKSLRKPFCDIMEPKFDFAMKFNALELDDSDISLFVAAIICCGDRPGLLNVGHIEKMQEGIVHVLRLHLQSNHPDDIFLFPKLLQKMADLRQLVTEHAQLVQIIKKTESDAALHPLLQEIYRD
Protocol: The assay was carried out in-vitro using mammalian-one-hybrid assays (M1H) comprising GAL4-DNA binding domain-PPARα-LBD fusion constructs in conjunction with 5×GAL4-sites driven Photinus pyralis luciferase reporter construct in transiently transfected HEK293 cells.

Wistar rat = Wistar rat model; Willumsen et al 1997; cited from earlier work

Row | Structure (SMILES) | EC50 (PPARα) [nM] | PPARα Efficacy (PPARα) [%] | plasma triglycerides (Wistar rat)
1 | CC/C=C\C/C=C\C/C=C\C/C=C\C/C=C\CCCCSC(CC)(CC)C(=O)O [Compound (12), 2-ethyl-2-((5Z,8Z,11Z,14Z,17Z)-icosa-5,8,11,14,17-pentaenylthio)butanoic acid] | 286 | 84 | –
2 | CC(C)(Sc1ccc(CCN(CCCCC2CCCCC2)C(=O)NC2CCCCC2)cc1)C(=O)O [GW7647] | – | 100 | –
3 | CC/C=C\C/C=C\C/C=C\C/C=C\CCSCC(=O)OC [Methyl (all-Z)-3-thia-6,9,12,15-octadecatetraenoate] | – | – | lowered plasma triglycerides to a similar extent
